The source made the active and inactive calls.
Legend:
[1] = NIH-3T3 fibroblast cytotoxicity, dose response, cytotoxicity control, cell-based, fluorescence, Alamar Blue, secondary assay (AID 2327); assay type: functional;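 note: NIH-3T3 mouse fibroblasts cultured with fluconazole at 8 µg/mL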
[2] = C. albicans growth with fluconazole, confirmation, fluorescence, retest (AID 2467); assay type: functional, cell-based
[3] = target: T1, Serine/threonine-protein phosphatase (Candida dubliniensis (strain CD36 / CBS 7987 / NCPF 3949 / NRRLY-17841) (Yeast), UniProt B9W6M3); experiment: calcineurin pathway inhibitors in yeast reporter, dose response, S. cerevisiae, CDRE-lacZ, luminescence, secondary (AID 2388); assay type: functional, cell-based;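 note: yeast reporter cells carrying a calcineurin-responsive lacZ construct stimulated with calcium chloride; luminescent beta-galactosidase reporter signal in whole cells rather than isolated phosphatase activity; potency for inhibition where a drop in reporter signal means calcineurin blockade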
T1 sequence (B9W6M3 whole entry): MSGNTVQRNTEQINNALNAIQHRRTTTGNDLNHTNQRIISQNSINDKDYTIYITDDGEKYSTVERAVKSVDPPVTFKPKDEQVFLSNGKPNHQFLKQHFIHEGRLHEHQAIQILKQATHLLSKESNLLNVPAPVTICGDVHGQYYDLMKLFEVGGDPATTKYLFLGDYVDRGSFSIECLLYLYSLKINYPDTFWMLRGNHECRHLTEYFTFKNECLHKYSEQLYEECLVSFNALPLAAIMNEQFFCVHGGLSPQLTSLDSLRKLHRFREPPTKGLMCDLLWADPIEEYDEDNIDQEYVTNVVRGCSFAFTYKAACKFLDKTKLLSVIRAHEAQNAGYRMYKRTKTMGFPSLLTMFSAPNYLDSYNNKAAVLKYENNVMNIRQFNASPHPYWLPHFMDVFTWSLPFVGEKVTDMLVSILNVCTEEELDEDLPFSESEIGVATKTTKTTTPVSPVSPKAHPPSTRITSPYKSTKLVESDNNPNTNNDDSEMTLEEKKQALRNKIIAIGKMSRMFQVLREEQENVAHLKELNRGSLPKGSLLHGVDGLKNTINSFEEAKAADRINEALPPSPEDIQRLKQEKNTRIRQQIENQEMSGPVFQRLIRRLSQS

[4] = target: ATP-dependent molecular chaperone HSP82 (Candida albicans (strain WO-1) (Yeast), UniProt C4YTQ8); experiment: loss of DOC-induced GRE-beta-galactosidase reporter signal, dose response, Hsp90 inhibitor project, S. cerevisiae, luminescence (AID 2400); assay type: functional, cell-based;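 note: beta-galactosidase luminescence from glucocorticoid response element reporter as proxy for Hsp90 function; inhibitor potency where signal loss means Hsp90 inhibition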
Chain of ATP-dependent molecular chaperone HSP82 (C4YTQ8 whole entry): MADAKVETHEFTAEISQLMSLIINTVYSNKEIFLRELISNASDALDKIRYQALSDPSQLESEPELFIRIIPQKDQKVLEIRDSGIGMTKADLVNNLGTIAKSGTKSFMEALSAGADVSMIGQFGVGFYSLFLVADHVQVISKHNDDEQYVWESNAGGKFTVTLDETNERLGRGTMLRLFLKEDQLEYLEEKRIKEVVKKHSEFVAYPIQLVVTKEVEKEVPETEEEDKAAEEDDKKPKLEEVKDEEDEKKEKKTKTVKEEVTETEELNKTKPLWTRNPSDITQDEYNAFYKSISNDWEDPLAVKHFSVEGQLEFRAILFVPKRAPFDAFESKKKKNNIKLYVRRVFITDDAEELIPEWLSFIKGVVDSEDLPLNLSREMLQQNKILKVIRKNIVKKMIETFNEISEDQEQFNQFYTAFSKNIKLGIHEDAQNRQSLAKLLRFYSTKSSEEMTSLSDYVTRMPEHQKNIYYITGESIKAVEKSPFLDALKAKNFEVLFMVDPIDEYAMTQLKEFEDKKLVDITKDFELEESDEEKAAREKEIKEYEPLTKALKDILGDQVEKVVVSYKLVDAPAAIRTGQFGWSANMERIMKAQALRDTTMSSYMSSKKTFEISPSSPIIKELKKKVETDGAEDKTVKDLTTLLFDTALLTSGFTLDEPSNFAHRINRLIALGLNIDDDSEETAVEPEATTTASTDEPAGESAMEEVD

[5] = target: Mu-type opioid receptor (Homo sapiens, UniProt P35372); assay type: functional, cell-based;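 note: U2OS cells with beta-arrestin recruitment to OPRM1 by beta-gal complementation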
Chain of Mu-type opioid receptor (P35372 whole entry): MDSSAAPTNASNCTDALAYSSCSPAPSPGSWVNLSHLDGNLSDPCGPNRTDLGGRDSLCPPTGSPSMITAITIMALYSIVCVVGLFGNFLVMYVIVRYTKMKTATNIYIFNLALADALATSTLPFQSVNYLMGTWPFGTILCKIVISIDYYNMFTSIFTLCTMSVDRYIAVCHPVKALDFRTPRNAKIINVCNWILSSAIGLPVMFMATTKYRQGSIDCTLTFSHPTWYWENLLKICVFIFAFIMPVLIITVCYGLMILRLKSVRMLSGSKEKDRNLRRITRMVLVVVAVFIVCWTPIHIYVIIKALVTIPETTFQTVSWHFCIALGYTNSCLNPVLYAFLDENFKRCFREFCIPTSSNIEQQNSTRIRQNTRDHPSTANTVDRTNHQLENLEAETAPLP

[6] = target: 5-hydroxytryptamine receptor 2A (Mus musculus, UniProt P35363); assay type: functional, cell-based;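 note: CHO-K1 cells with tagged receptor and beta-arrestin; agonist potency measured as compound-induced activation of the receptor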
Chain of 5-hydroxytryptamine receptor 2A (P35363 whole entry): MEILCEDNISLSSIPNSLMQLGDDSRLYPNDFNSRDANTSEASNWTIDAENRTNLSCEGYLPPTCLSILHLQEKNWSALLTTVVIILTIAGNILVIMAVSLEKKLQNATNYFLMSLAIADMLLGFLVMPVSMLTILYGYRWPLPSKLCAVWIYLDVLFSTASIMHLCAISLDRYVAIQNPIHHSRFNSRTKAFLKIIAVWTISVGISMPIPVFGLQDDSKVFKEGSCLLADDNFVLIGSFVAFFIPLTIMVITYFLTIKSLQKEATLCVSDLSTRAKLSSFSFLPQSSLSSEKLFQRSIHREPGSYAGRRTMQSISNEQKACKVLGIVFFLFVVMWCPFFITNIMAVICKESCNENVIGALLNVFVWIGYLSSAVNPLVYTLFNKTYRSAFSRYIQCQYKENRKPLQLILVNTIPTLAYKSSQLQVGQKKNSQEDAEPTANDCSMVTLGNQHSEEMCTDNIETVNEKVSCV

[7] = system: H9c2; experiment: cells; assay type: functional, cell-based; conditions: Rattus norvegicus, H9c2, Myocardium;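 note: confirmatory concentration-response retest of ultra-high-throughput screening hits for modulation of myocardial damage; cell death induced by hydrogen peroxide oxidative stress; compound pretreatment for 60 min then peroxide exposure for 2 h; potency is for protecting the cells against peroxide damage rather than for killing them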
[8] = target: Paired box protein Pax-8 (Homo sapiens, UniProt Q06710); experiment: inhibitors of PAX8-driven TPO luciferase reporter, dose response, RMG-I cells, cherry-pick (AID 687027); assay type: functional, cell-based;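 note: luciferase reporter driven by Pax8 target thyroperoxidase promoter measured by SteadyGlo luminescence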
Chain of Paired box protein Pax-8 (Q06710 whole entry): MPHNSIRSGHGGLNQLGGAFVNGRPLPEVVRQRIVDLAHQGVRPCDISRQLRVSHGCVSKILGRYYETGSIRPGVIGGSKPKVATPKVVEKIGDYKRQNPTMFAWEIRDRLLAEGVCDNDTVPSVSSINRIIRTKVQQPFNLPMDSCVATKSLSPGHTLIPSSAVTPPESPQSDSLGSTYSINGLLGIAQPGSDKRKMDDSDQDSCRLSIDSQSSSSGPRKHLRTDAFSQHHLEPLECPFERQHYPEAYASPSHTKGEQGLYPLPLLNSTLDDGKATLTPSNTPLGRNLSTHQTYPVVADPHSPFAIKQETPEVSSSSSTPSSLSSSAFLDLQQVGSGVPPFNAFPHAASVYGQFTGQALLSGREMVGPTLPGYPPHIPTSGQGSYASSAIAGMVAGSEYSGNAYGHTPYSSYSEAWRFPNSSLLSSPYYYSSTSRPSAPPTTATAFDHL

[9] = non-specific cell cytotoxicity, dose response, cytotoxicity control for PAX8 inhibitor project, plate reader, dry powder samples (AID 743021); assay type: functional, cell-based
[10] = target: SWI/SNF-related matrix-associated actin-dependent regulator of chromatin subfamily A member 2 (Homo sapiens, UniProt P51531); experiment: Luminescence-based cell-based high throughput dose response assay to identify activators of the function of SWI/SNF related, matrix associated, actin dependent regulator of chromatin, subfamily a, member 2 (SMARCA2, BRM).; assay type: functional
Chain of SWI/SNF-related matrix-associated actin-dependent regulator of chromatin subfamily A member 2 (P51531 whole entry): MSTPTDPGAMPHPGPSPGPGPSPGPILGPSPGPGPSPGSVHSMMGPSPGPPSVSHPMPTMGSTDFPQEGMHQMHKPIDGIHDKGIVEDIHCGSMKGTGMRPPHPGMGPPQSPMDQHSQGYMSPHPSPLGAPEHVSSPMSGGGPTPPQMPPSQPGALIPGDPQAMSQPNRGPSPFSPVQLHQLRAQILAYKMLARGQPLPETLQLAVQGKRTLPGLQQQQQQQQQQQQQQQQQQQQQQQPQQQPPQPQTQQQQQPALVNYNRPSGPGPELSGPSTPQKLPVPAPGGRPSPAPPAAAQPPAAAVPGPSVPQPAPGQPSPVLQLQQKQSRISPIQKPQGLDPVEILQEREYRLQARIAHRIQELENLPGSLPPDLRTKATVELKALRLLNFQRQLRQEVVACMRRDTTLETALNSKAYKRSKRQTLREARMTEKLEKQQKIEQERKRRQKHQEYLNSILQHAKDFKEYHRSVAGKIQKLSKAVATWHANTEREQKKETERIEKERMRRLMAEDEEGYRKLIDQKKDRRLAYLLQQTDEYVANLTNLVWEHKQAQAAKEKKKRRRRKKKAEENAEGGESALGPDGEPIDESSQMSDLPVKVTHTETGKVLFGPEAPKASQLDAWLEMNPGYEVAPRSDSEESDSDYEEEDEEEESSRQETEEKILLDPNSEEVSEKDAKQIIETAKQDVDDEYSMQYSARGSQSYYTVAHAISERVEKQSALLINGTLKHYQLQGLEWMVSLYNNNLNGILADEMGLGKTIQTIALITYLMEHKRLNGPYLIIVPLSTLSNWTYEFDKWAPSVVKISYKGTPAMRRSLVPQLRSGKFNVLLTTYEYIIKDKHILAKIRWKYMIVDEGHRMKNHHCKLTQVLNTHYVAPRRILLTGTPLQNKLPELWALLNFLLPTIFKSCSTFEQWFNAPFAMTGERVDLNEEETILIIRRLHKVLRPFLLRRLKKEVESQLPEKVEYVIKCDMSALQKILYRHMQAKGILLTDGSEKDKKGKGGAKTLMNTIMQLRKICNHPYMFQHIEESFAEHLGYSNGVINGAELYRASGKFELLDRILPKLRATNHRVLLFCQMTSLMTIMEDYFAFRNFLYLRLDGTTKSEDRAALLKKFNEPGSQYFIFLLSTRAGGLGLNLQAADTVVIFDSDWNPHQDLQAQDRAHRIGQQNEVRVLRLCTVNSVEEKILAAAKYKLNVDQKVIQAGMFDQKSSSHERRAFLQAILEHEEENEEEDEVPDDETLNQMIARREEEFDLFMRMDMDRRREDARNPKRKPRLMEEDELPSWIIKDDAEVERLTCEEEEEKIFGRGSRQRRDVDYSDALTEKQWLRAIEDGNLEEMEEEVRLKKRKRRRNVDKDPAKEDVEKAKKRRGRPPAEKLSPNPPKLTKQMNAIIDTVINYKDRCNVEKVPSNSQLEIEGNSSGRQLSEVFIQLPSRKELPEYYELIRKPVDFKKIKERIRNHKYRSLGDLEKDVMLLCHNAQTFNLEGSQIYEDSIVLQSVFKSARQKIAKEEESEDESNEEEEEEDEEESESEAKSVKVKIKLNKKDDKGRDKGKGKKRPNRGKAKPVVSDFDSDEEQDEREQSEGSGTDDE

[11] = Counterscreen for activators of the function of SWI/SNF related, matrix associated, actin dependent regulator of chromatin, subfamily a, member 2 (SMARCA2, BRM): Luminescence-based cell-based high throughput dose response assay to identify non-selective compounds using the VP16 reporter assay.; assay type: functional
[12] = target: T2, Caspase-6 (Homo sapiens, UniProt P55212); experiment: human caspase-6 inhibitors, dose response, biochemical, VEID-R110 fluorescence, cherry-pick (AID 720632)
T2 sequence (P55212 whole entry): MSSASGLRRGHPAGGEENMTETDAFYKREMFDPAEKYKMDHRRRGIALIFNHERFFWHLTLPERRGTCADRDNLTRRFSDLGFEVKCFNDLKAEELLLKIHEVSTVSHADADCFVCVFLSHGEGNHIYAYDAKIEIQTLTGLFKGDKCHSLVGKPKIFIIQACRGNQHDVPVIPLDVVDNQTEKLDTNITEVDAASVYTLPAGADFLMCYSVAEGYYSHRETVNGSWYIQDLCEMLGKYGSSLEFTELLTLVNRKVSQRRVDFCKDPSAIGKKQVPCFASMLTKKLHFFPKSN

[13] = target: T3, Heat shock factor protein 1 (Mus musculus, UniProt P38532); experiment: inhibition of MG132-induced HSE-luciferase signal, confirmation, cell-based, NIH3T3, luminescence, dose retest (AID 2382); assay type: functional;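 note: NIH3T3 fibroblasts with HSF1-driven luciferase reporter stressed by proteasome inhibitor MG132; luminescence from HSF1-driven luciferase expression after 8 hours of MG132 stress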
T3 sequence (P38532 whole entry): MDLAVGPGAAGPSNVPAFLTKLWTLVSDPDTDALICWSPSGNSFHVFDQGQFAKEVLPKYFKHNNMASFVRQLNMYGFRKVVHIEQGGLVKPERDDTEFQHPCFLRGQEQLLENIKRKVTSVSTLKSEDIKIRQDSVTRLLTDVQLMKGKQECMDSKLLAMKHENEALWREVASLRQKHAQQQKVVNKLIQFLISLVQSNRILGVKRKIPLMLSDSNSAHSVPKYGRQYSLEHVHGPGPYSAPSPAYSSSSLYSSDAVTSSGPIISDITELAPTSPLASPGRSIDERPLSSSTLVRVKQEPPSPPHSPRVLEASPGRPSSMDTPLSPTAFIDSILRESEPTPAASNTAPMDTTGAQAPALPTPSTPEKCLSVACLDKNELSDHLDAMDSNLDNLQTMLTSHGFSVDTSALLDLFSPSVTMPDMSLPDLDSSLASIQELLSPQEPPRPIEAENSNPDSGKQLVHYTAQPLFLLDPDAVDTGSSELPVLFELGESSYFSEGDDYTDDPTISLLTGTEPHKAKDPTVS

[14] = target: Beta-lactamase (Salmonella choleraesuis (strain SC-B67), UniProt Q5J463); experiment: Epi-absorbance-based counterscreen for selective VIM-2 inhibitors: dose response biochemical high throughput screening assay to identify inhibitors of TEM-1 serine-beta-lactamase.
Chain of Beta-lactamase (Salmonella choleraesuis (strain SC-B67), UniProt Q5J463) (Q5J463 whole entry): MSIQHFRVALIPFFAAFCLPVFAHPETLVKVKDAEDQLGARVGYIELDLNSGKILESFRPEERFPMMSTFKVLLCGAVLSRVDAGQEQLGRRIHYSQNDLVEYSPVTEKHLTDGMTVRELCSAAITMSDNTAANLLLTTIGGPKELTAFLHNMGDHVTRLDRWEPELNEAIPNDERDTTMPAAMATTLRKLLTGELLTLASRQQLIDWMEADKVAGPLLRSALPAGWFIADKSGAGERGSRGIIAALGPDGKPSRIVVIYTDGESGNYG

[15] = target: T4, Beta-lactamase (Pseudomonas aeruginosa, UniProt Q79MP6); experiment: IMP-1 metallo-beta-lactamase inhibitors, dose response, selectivity assay for VIM-2 inhibitor project, biochemical, epi-absorbance (AID 1920)
T4 sequence (Q79MP6 whole entry): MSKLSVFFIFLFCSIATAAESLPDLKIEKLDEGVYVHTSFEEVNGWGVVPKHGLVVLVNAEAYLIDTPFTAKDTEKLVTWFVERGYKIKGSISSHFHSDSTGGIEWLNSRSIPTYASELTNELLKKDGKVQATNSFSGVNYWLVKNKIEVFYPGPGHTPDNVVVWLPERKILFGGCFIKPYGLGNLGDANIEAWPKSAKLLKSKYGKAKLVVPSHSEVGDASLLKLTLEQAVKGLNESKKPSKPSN

[16] = target: T4, Beta-lactamase; experiment: […] counterscreen for selective VIM-2 inhibitors: dose response biochemical high throughput screening assay to identify inhibitors of IMP-1 metallo-beta-lactamase.
[17] = system: Vero; experiment: cells; assay type: functional; conditions: Chlorocebus sabaeus
[18] = HeLa cell cytotoxicity, dose response, cytotoxicity control for MgcRacGAP inhibitor project (AID 624300); assay type: functional
[19] = target: T5, Rac GTPase-activating protein 1 (Homo sapiens, UniProt Q9H0H5); experiment: MgcRacGAP GTPase-activating activity inhibitors, confirmation, biochemical, ADP Hunter fluorescence, primary and confirmatory (AID 624330); assay type: functional
T5 sequence (Q9H0H5 whole entry): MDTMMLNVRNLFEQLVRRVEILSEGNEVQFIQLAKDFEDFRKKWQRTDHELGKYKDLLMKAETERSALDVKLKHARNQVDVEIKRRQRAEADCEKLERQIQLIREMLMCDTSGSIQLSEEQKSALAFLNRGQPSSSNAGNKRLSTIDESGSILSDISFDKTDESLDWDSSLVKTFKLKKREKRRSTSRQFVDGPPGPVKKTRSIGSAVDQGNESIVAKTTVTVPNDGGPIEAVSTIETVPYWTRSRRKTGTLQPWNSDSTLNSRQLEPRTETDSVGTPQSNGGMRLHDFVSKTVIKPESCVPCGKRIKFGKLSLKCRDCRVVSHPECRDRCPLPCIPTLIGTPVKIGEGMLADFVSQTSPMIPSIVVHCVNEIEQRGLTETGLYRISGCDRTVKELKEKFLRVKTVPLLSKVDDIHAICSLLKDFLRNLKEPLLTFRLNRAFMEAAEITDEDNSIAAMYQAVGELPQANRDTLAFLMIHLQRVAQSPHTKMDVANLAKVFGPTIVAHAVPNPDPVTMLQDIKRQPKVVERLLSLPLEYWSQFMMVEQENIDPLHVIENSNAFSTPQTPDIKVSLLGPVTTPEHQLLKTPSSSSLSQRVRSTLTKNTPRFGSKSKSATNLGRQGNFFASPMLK

[20] = target: T6, DNA repair protein RAD52 homolog (Homo sapiens, UniProt P43351); assay type: functional, biochemical
T6 sequence (P43351 whole entry): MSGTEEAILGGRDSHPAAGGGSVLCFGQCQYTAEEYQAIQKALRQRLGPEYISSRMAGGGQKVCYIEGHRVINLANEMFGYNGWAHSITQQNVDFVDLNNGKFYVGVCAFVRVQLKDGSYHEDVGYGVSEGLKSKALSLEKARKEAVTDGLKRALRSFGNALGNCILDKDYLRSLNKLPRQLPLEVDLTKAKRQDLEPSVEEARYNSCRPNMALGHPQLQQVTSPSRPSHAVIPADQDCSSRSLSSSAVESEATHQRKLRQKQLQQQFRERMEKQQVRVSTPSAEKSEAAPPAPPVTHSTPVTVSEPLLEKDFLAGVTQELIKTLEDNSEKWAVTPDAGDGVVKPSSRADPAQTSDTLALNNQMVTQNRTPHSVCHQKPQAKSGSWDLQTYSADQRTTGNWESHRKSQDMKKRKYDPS

[21] = target: Heat shock protein HSP 90-alpha (Homo sapiens, UniProt P07900); assay type: functional, organism-based
[22] = system: Vero; experiment: Vero cell cytotoxicity, cytotoxicity control for flavivirus capping enzyme inhibitors (AID 588742); assay type: functional; conditions: Chlorocebus sabaeus
[23] = target: Genome polyprotein (dengue virus type 2, UniProt P29990); experiment: Dengue-2 NS5 methyltransferase inhibitors, primary screen, biochemical, confirmation dose response (AID 588689); assay type: functional
[24] = target: T7, Microphthalmia-associated transcription factor (Homo sapiens, UniProt O75030); experiment: TRPM1 promoter luciferase signal decrease, dose response, MITF inhibitor project, cell-based, SK-MEL-5, cherry-picked, set 3 (AID 493073); assay type: functional
T7 sequence (O75030 whole entry): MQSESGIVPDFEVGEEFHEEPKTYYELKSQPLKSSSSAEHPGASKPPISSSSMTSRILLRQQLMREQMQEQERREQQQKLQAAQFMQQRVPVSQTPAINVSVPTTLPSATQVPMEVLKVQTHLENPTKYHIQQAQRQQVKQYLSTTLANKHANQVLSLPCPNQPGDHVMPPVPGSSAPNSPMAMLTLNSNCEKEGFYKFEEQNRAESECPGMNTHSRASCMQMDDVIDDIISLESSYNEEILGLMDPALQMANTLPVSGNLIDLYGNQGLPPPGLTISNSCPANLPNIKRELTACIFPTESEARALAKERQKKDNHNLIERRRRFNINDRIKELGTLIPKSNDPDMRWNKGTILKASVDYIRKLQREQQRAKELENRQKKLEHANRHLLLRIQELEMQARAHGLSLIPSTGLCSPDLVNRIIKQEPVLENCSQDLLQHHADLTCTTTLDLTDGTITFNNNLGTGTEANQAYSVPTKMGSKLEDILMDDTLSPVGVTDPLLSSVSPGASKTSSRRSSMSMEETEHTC

[25] = system: Vero; experiment: cells; assay type: functional, cell-based; conditions: Chlorocebus sabaeus
[26] = target: T8, Polyadenylate-binding protein 1 (Homo sapiens, UniProt P11940); experiment: PABP1 MLLE–PAM2 interaction inhibitors, dose response, miRNA deadenylation inhibitor project, biochemical, fluorescence polarization, Cy5-PAM2 peptide, secondary (AID 602260); assay type: functional; conditions: read-out: IC50_Mean
T8 sequence (P11940 whole entry): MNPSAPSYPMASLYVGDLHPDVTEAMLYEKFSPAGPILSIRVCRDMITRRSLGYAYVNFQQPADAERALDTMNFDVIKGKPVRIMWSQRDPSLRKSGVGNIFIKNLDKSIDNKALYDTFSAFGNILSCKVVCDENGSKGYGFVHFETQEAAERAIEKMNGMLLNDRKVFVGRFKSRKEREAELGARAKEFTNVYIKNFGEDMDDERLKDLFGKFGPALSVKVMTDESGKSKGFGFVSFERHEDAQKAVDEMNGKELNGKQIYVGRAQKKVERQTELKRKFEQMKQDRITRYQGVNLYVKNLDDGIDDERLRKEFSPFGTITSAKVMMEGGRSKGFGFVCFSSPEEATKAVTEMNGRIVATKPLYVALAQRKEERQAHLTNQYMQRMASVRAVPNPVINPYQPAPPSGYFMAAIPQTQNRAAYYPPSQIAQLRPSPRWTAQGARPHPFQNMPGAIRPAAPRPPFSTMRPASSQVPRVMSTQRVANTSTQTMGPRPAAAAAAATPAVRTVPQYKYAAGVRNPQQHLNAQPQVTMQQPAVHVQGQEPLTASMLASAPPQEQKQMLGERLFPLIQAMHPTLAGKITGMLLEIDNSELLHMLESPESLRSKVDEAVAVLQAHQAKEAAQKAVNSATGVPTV

[27] = target: T8, Polyadenylate-binding protein 1; experiment: PABP1 MLLE–PAM2 binding inhibitor potency, dose response, biochemical, fluorescence polarization, FITC-PAM2 peptide (AID 602259); assay type: functional; conditions: read-out: IC50_Mean

O=C(c1cc2c(s1)CCCCC2)N1CCN(c2ncccn2)CC1
EC50 [1]: > 160 µM (inconclusive)
EC50 [2]: 1.2 µM (active)
EC50 [3]: > 180 µM (inactive)
EC50 [4]: 23.9 µM (active)

CCOc1ccc(NC(=O)CCN2CCN(c3ccccc3F)CC2)cc1
EC50 [5]: 92.6 µM (inactive)
EC50 [6]: 0.0925 µM (active)

O=C(C(=O)N(Cc1ccccc1)Cc1ccccc1)c1c(-c2ccccc2)[nH]c2ccccc12
IC50 [7]: > 79 µM (inactive)
AC50 [8]: 7.45 µM (active)
AC50 [9]: 44.5 µM (active)

CC(C)=CCNc1ncnc2c1c(C#N)cn2C1OC(CO)C(O)C1O (centres undefined)
EC50 [10]: > 91.1 µM (inactive)
EC50 [11]: > 91.1 µM (inactive)
AC50 [8]: 3.79 µM (active)

Nc1nc(-c2ccccc2)nc(O)c1N=O
AC50 [12]: 11.6 µM (active)

O=C1CN(C(=O)COC(=O)c2ccc([N+](=O)[O-])o2)c2ccccc2N1
AC50 [12]: 15.1 µM (active)

c1ccc(COc2cccc(CN3CCN(c4ccccn4)CC3)c2)cc1
EC50 [13]: > 195 µM (not active)
EC50 [5]: 92.5 µM (inactive)
EC50 [6]: 0.022 µM (active)

O=C(O)C(NC(=O)c1ccccc1)=C(Cl)Cl
IC50 [14]: > 59.6 µM (inactive)
IC50 [15]: > 59.6 µM (inactive)
IC50 [16]: > 59.6 µM (inactive)

NC(=O)c1ccsc1NC(=O)c1ccc([N+](=O)[O-])o1
IC50 [7]: > 79 µM (inactive)
CC50 [17]: 11.7 µM (active)
EC50 [10]: > 91.1 µM (inactive)
EC50 [11]: > 91.1 µM (inactive)
AC50 [8]: 3.8 µM (active)

COc1cc2c[n+](C)c3c4ccccc4ccc3c2cc1OC
CC50 [18]: 66 µM (active)
IC50 [19]: 60.5 µM (active)
EC50 [10]: > 91.1 µM (inactive)
EC50 [11]: > 91.1 µM (inactive)
AC50 [20]: 0.36 µM (active)

Oc1c(Cl)cccc1Cc1cc(Cl)cc(Cl)c1O
AC50 [21]: 3.05 µM (active)
CC50 [22]: 19.3 µM (active)
IC50 [23]: 45.5 µM (active)

NC(=O)c1c(NC(=O)c2ccco2)sc2c1CCC2
EC50 [1]: > 150 µM (inactive)
EC50 [2]: 0.654 µM (inconclusive)
EC50 [3]: > 180 µM (inactive)
EC50 [4]: > 150 µM (inactive)

CCN(CC)C(=O)N[C@H]1C[C@@H]2c3cccc4[nH]cc(c34)C[C@H]2N(C)C1 [TERGURIDE]
EC50 [5]: 92.5 µM (inactive)
EC50 [6]: 0.0038 µM (active)

CC(C)C(CCNC1CCN(C)CC1)c1ccc(Cl)cc1 (centres undefined)
AC50 [24]: 11.9 µM (active)
IC50 [25]: > 25 µM (active)
CC50 [17]: 20.4 µM (active)

O=C(NCc1ccco1)c1sc(=S)n2c1[nH]c(=O)c1ccccc12
EC50 [1]: > 160 µM (inactive)
EC50 [2]: 0.837 µM (active)
EC50 [3]: > 180 µM (inactive)
EC50 [4]: > 160 µM (inactive)
IC50 [26]: > 66 µM (inactive)
IC50 [27]: > 66 µM (inactive)
IC50 [19]: 75.6 µM (active)
